Consider seven molecules from patent US20240148679A1, “METHODS AND COMPOSITIONS RELATED TO TREATMENT AND PREVENTION OF CANCER BY INHIBITION OF DGAT1 AND DGAT2” (Ohio State Innovation Foundation, priority 2019, published 2024).

Common to all, as to format: cell-based, human
One experiment has as its system GBM cells (U251). Description: ROS detection with CellROX Deep Red. The settings on record: co-treatment (NAC 1 mM; ETO 6 μM) with DGAT1 inhibition. As to the method: (A, B) Transmission electron microscopy (TEM) analysis of the mitochondrial morphology in GBM cells (U251) treated with the DGAT1 inhibitor A-922500 (20 μg/ml) or DGAT2 inhibitor PF-06424439 (20 μg/ml) for 24 hr and shown in a or infected with shRNA-expressing lentivirus against DGAT1 for 48 hr and shown in b. Scale bar, 500 nm. Mitochondria are indicated by red arrows. Mitochondria length and loss of cristae (%) were quantified by ImageJ over 100 mitochondria in each group (mean±SEM). Statistical significance was determined by one-way ANOVA. * P<0.0001. (C, D) Representative fluorescence images of LDs (green) and mitochondria (red) in U251 cells treated with DGAT1 or DGAT2 inhibitor and shown in c or shRNA in (D) as in panels (A, B). […] The percentage of cells with tubular or fragmented mitochondria was quantified by ImageJ in more than 100 cells (mean±SEM). Statistical significance was determined by one-way ANOVA. * P<0.001. […] Lower panels show the quantification of relative basal and maximal OCR change (details please see Methods). […] Basal OCR was determined as OCR before oligomycin subtract OCR after rotenone addition, and maximal OCR was determined as OCR after FCCP subtract OCR after rotenone addition. Statistical significance was determined by one-way ANOVA. * P<0.0001. […] ROS were detected with CellROX Deep Red, and mitochondria were stained with MitoTracker Green. […]

The subject of another experiment is GBM cells. Description: GBM cell death, trypan blue counting. The settings on record: for cell death caused by DGAT1 inhibition (rescue): co-treatment with DGAT1 inhibition (A-922500 20 μg/ml, 3 days), U251.
In another experiment the test system is liver cancer cells. Description: Liver cancer cell death with DGAT1 and DGAT2 inhibitors alone or in combination. As to the method: MHCC97L 6×10^4 12 well plate, treated at 24 hours with 1% FBS DMEM with DGAT1 and DGAT2 inhibitors. Picture taken on day 4.
HEPG2 6×10^4 12 well plate, treated at 24 hours with 1% FBS DMEM with DGAT1 and DGAT2 inhibitors. Picture taken on day 4.
HeG2 8×10^4 12 well plate, treated at 24 hours with 1% FBS DMEM with DGAT1 and DGAT2 inhibitors. Picture taken on day 4.
Huh7 4×10^4 12-well plate, treated at 24 hours with 1% FBS DMEM with DGAT1 and DGAT2 inhibitors. Picture taken on day 4.
Hep3B 6×10^4 12-well plate, treated at 24 hours with 1% FBS DMEM with DGAT1 and DGAT2 inhibitors. Picture taken on day 4.
Huh7 6×10^4 12-well plate, treated at 24 hours with 1% FBS DMEM with DGAT1 and DGAT2 inhibitors. Picture taken on day 4.

Where [1] appears, read: DGAT1 inhibitor in combination with DGAT2 inhibitor.

“Also recorded” adds a separate entry of the source.

`CC(=O)N[C@@H](CS)C(=O)O` [NAC, N-acetyl-cysteine]: the “ROS caused by DGAT1 inhibition” value in the experiment with GBM cells (U251) was “significantly decreased”. Besides, the “acylcarnitine-induced GBM cell death” value in the experiment with GBM cells (NAC 1 mM with acylcarnitines 20 μM, 2 days) is listed as “significantly reduced”. The “cell death caused by DGAT1 inhibition (rescue)” value in the experiment with GBM cells is on record as “significantly decreased”.
Consider `CCCCCCC(=O)CCCCCC/C=C/C[C@@H](O)[C@H](O)[C@@](N)(CO)C(=O)O` [myriocin], for which the “cell death caused by DGAT1 inhibition (rescue)” value in the experiment on GBM cells is given as “no rescue effects; also recorded: does not rescue cell death”.
In the case of `N#Cc1ccc(Oc2ccc(/C=C3\SC(=NCCc4ccccn4)NC3=O)cc2F)c(Br)c1` [JNJ DGAT2-A], the “liver cancer cell death” value in the experiment on liver cancer cells (setting [1]) is reported as “effective to kill liver cancer cells”; with liver cancer cells (each single inhibitor), “no ability to induce liver cancer cell death”.
As to `Cc1cccc(CC(=O)N2CCc3c2ccc(-c2cn(C)c4ncnc(N)c24)c3F)n1` [GSK2656157], the “cell death caused by DGAT1 inhibition (rescue)” value in the experiment on GBM cells is reported as “did not exert any rescue effects; also recorded: No rescue effects”.
Regarding `CCOC(=O)[C@@]1(CCCCCCOc2ccc(Cl)cc2)CO1` [ETO], the “ROS caused by DGAT1 inhibition” value in the experiment on GBM cells (U251) was “significantly reduced”. Also, in the experiment on GBM cells, the “cell death caused by DGAT1 inhibition (rescue)” value is on record as “significantly reduced”.
Consider `O=C(O)C[C@H]1CC[C@H](c2ccc(-c3ccc(Nc4ccc(C(F)(F)F)nc4)cn3)cc2)CC1` [Pradigastat], for which the figures for the “liver cancer cell death” value in the experiment with liver cancer cells (setting [1]) and in the experiment on liver cancer cells (each single inhibitor) were “effective to kill liver cancer cells” and “no ability to induce liver cancer cell death”, respectively.
As to `Cc1cc(=O)oc2c(C=O)c(O)ccc12` [4μ8C], the “cell death caused by DGAT1 inhibition (rescue)” value in the experiment on GBM cells was “did not exert any rescue effects; also recorded: No rescue effects”.
